Legend:
[1] = target: Alpha-1D adrenergic receptor (Homo sapiens, UniProt P25100); assay: GPCRScan assay: inhibition of Alpha1D; set-up: radioligand conc. used [nm] 0.3 – 1.0, parental cells stable
[2] = target: Sodium/hydrogen exchanger 3 (Homo sapiens, UniProt P48764); assay: pHi change assay with SLC9A3
[3] = target: AP2-associated protein kinase 1 (Homo sapiens) (UniProt Q2M2I8); settings: Compound concentration 1000.0 nM
[4] = system: Tyrosine-protein kinase ABL1 (Homo sapiens), P00519 [M351T]; settings: Compound concentration 1000.0 nM
[5] = system: Tyrosine-protein kinase ABL1 (Homo sapiens), P00519 [Q252H]; settings: Compound concentration 1000.0 nM
[6] = system: Tyrosine-protein kinase ABL1 (Homo sapiens), P00519 [T315I]; settings: Compound concentration 1000.0 nM
[7] = target: Cytoplasmic tyrosine-protein kinase BMX (Homo sapiens) (UniProt P51813); settings: Compound concentration 1000.0 nM
Cytoplasmic tyrosine-protein kinase BMX (Homo sapiens), sequence (P51813 whole entry): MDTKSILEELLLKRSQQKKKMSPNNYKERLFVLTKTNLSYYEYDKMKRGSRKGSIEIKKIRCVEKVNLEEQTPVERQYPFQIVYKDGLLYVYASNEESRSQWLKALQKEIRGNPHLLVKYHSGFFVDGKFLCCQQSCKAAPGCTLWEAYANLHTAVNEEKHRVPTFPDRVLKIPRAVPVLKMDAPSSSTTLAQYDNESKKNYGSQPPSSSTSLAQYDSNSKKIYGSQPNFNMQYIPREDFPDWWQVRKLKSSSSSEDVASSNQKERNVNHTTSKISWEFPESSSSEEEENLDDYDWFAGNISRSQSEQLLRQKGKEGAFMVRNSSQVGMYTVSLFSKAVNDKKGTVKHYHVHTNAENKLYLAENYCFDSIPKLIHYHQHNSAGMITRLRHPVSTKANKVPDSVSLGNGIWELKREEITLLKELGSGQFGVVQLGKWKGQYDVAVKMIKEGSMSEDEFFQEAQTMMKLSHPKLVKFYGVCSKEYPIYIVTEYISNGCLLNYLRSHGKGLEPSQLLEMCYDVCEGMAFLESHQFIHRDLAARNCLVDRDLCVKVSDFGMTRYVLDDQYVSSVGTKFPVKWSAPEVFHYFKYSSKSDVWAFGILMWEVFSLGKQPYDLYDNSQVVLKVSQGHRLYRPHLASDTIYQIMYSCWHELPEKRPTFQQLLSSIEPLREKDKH

[8] = target: Tyrosine-protein kinase BTK (Homo sapiens) (UniProt Q06187); settings: Compound concentration 1000.0 nM
[9] = target: Calcium/calmodulin-dependent protein kinase type 1 (Homo sapiens) (UniProt Q14012); settings: Compound concentration 1000.0 nM
[10] = target: Cyclin-dependent kinase 7 (Homo sapiens) (UniProt P50613); settings: Compound concentration 1000.0 nM
[11] = target: Cyclin-dependent kinase-like 3 (Homo sapiens) (UniProt Q8IVW4); settings: Compound concentration 1000.0 nM
[12] = target: Macrophage colony-stimulating factor 1 receptor (Homo sapiens) (UniProt P07333); settings: Compound concentration 1000.0 nM
[13] = target: Death-associated protein kinase 3 (Homo sapiens) (UniProt O43293); settings: Compound concentration 1000.0 nM
[14] = target: Serine/threonine-protein kinase DCLK1 (Homo sapiens) (UniProt O15075); settings: Compound concentration 1000.0 nM
[15] = target: Discoidin domain-containing receptor 2 (Homo sapiens) (UniProt Q16832); settings: Compound concentration 1000.0 nM
[16] = target: Serine/threonine-protein kinase MRCK gamma (Homo sapiens) (UniProt Q6DT37); settings: Compound concentration 1000.0 nM
[17] = target: Serine/threonine-protein kinase/endoribonuclease IRE1 (Homo sapiens) (UniProt O75460); settings: Compound concentration 1000.0 nM
[18] = system: Receptor-type tyrosine-protein kinase FLT3 (Homo sapiens), P36888 [UNDEFINED MUTATION]; settings: Compound concentration 1000.0 nM
[19] = target: Beta-adrenergic receptor kinase 1 (Homo sapiens) (UniProt P25098); settings: Compound concentration 1000.0 nM
[20] = target: Glycogen synthase kinase-3 beta (Homo sapiens) (UniProt P49841); settings: Compound concentration 1000.0 nM
[21] = target: Homeodomain-interacting protein kinase 1 (Homo sapiens) (UniProt Q86Z02); settings: Compound concentration 1000.0 nM
[22] = target: Inhibitor of nuclear factor kappa-B kinase subunit alpha (Homo sapiens) (UniProt O15111); settings: Compound concentration 1000.0 nM
Inhibitor of nuclear factor kappa-B kinase subunit alpha (Homo sapiens), sequence (O15111 whole entry): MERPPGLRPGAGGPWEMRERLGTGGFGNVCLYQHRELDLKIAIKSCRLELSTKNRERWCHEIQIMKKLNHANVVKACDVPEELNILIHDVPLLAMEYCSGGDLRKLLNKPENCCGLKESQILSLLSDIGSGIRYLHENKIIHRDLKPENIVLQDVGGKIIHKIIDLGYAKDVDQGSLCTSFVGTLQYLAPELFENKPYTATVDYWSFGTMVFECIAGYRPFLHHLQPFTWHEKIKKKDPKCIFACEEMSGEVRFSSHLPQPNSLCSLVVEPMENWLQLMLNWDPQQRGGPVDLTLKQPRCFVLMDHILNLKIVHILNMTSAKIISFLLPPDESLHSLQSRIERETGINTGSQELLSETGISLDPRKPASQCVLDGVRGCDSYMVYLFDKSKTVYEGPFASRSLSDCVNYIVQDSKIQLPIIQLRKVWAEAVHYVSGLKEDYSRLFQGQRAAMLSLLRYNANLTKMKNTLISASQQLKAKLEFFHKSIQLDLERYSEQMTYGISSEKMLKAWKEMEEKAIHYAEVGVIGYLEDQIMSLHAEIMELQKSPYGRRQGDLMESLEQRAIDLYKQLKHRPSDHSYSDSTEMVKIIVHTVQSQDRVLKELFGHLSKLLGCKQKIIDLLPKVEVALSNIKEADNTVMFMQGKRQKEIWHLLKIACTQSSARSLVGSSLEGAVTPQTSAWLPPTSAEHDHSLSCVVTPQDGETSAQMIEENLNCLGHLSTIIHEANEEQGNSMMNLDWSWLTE

[23] = target: Insulin receptor (Homo sapiens) (UniProt P06213); settings: Compound concentration 1000.0 nM
[24] = target: Tyrosine-protein kinase JAK3 (Homo sapiens) (UniProt P52333); settings: Compound concentration 1000.0 nM
[25] = target: Mitogen-activated protein kinase 8 (Homo sapiens) (UniProt P45983); settings: Compound concentration 1000.0 nM
[26] = system: Mast/stem cell growth factor receptor Kit (Homo sapiens), P10721 [V559D]; settings: Compound concentration 1000.0 nM
[27] = target: MAP/microtubule affinity-regulating kinase 4 (Homo sapiens) (UniProt Q96L34); settings: Compound concentration 1000.0 nM
MAP/microtubule affinity-regulating kinase 4 (Homo sapiens), sequence (Q96L34 whole entry): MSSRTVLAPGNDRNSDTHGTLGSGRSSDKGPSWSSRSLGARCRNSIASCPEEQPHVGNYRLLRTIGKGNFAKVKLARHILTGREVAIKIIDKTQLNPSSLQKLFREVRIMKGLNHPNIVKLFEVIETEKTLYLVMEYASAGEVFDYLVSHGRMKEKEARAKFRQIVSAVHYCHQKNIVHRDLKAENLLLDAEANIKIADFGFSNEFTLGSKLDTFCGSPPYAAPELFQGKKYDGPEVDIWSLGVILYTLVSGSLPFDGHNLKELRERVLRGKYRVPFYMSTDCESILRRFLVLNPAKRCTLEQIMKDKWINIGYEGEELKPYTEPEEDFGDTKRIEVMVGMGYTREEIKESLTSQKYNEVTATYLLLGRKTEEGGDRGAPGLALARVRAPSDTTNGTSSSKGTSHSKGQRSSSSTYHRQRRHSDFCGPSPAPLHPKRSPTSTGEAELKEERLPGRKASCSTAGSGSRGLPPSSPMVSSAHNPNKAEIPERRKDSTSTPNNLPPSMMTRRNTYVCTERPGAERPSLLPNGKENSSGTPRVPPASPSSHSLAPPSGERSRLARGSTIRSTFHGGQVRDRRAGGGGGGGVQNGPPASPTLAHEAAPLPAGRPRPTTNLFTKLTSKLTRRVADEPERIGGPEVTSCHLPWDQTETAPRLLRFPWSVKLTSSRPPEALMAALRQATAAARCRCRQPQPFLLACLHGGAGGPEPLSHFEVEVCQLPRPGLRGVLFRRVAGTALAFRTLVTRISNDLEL

[28] = target: Dual specificity mitogen-activated protein kinase kinase 6 (Homo sapiens) (UniProt P52564); settings: Compound concentration 1000.0 nM
[29] = target: Serine/threonine-protein kinase Nek1 (Homo sapiens) (UniProt Q96PY6); settings: Compound concentration 1000.0 nM
[30] = target: Serine/threonine-protein kinase PAK 1 (Homo sapiens) (UniProt Q13153); settings: Compound concentration 1000.0 nM
[31] = target: cGMP-dependent protein kinase 1 (Homo sapiens) (UniProt Q13976); settings: Compound concentration 1000.0 nM
[32] = target: Receptor-interacting serine/threonine-protein kinase 4 (Homo sapiens) (UniProt P57078); settings: Compound concentration 1000.0 nM
Receptor-interacting serine/threonine-protein kinase 4 (Homo sapiens), sequence (P57078 whole entry): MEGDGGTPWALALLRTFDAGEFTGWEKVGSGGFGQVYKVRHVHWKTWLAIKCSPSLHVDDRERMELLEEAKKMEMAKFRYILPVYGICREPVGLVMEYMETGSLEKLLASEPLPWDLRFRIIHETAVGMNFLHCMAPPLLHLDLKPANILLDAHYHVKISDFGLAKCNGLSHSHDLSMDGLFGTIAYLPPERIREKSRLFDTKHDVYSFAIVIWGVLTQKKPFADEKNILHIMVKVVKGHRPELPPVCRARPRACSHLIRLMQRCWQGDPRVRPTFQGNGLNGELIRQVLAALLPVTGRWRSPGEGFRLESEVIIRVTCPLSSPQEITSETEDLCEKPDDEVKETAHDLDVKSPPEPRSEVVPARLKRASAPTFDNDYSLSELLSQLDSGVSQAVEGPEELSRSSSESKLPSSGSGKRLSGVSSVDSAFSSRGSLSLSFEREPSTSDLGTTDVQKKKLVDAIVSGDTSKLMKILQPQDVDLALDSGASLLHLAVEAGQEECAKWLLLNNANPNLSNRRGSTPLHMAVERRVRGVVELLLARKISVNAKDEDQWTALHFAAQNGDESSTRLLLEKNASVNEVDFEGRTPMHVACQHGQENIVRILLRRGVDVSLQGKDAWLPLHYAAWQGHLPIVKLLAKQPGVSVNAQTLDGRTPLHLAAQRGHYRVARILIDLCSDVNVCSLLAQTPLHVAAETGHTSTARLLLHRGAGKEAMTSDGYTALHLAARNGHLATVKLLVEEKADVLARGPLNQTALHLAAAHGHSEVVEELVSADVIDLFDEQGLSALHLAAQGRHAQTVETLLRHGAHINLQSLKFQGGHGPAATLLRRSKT

[33] = target: Dual serine/threonine and tyrosine protein kinase (Homo sapiens) (UniProt Q6XUX3); settings: Compound concentration 1000.0 nM
Dual serine/threonine and tyrosine protein kinase (Homo sapiens), sequence (Q6XUX3 whole entry): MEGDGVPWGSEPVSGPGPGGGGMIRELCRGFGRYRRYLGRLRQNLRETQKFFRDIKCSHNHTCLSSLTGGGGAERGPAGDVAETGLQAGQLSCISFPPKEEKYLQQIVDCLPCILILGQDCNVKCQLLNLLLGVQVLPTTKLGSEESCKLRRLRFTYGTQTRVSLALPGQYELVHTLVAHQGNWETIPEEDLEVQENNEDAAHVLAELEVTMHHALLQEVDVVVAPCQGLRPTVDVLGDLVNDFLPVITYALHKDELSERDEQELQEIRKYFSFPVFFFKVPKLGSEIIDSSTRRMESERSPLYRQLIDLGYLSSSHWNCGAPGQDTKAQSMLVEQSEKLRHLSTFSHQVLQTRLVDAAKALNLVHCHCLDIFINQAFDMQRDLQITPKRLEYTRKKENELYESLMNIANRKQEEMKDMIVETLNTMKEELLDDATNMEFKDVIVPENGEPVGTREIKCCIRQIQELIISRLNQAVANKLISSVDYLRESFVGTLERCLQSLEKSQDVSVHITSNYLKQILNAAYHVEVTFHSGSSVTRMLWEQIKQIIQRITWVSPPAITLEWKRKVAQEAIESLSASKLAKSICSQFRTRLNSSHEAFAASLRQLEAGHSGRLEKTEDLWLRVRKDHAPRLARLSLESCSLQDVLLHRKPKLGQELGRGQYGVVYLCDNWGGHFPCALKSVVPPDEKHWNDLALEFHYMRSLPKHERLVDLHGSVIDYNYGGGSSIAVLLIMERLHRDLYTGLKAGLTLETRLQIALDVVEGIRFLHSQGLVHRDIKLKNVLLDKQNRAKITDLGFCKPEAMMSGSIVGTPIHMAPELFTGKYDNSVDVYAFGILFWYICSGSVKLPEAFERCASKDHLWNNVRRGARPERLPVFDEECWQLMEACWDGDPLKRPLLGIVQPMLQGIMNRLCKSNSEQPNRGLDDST

[34] = target: Serine/threonine-protein kinase Sgk1 (Homo sapiens) (UniProt O00141); settings: Compound concentration 1000.0 nM
Serine/threonine-protein kinase Sgk1 (Homo sapiens), sequence (O00141 whole entry): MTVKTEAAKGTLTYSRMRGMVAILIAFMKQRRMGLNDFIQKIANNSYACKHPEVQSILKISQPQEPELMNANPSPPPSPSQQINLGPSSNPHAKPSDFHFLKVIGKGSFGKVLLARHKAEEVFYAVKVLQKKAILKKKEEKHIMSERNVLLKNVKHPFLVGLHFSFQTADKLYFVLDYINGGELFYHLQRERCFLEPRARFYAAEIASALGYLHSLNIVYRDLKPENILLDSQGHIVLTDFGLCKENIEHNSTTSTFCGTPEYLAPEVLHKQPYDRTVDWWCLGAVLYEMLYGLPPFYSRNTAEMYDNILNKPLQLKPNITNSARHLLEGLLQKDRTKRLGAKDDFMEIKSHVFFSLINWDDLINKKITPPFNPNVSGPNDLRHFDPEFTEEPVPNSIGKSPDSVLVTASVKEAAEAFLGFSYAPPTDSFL

[35] = target: SRSF protein kinase 3 (Homo sapiens) (UniProt Q9UPE1); settings: Compound concentration 1000.0 nM
[36] = target: TRAF2 and NCK-interacting protein kinase (Homo sapiens) (UniProt Q9UKE5); settings: Compound concentration 1000.0 nM
[37] = target: High affinity nerve growth factor receptor (Homo sapiens) (UniProt P04629); settings: Compound concentration 1000.0 nM
[38] = target: 5-hydroxytryptamine receptor 6 (Homo sapiens) (UniProt P50406); settings: Compound concentration 10.0 uM
[39] = target: T1, Alpha-1A adrenergic receptor (Homo sapiens) (UniProt P35348); settings: Compound concentration 10.0 uM
T1 sequence (whole entry): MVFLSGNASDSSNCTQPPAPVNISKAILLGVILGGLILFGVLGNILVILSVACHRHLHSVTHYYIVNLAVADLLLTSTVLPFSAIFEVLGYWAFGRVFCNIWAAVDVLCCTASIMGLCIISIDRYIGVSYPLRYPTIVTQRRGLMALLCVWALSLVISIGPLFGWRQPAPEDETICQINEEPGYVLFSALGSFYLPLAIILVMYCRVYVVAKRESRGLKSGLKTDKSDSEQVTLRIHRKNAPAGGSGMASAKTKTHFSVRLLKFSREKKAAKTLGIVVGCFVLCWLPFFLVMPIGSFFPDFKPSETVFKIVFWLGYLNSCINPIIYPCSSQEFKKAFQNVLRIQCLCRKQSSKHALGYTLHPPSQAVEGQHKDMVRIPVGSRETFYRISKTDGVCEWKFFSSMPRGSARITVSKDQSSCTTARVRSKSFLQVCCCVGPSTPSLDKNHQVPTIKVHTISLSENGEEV

Alpha-1D adrenergic receptor, sequence (P25100 whole entry): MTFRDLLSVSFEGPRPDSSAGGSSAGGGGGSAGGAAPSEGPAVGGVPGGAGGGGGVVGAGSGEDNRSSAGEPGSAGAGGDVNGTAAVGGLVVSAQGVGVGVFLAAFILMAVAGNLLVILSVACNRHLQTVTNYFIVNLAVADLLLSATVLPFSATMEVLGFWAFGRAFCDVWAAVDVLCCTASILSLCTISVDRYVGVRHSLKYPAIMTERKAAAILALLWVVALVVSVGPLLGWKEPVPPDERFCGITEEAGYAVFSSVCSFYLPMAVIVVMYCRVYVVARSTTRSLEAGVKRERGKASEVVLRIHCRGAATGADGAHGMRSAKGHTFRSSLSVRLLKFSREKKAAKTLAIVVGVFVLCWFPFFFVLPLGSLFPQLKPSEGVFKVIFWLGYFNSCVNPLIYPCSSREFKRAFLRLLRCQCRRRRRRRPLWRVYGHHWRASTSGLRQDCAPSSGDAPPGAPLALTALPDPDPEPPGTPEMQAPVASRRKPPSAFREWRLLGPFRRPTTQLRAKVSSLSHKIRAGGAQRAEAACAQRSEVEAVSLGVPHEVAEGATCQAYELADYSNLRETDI

CC(=O)N1CCC(c2ccc(C(=O)NC3=NCCN3)cc2C(F)(F)F)CC1 [BI 0054]
Ki [1]: 10 µM | IC50 [2]: > 10 µM (not active) | residual activity [3]: 100% | residual activity [4]: 100% | residual activity [5]: 86% | residual activity [6]: 92% | residual activity [7]: 100% | residual activity [8]: 97% | residual activity [9]: 100% | residual activity [10]: 89% | residual activity [11]: 100% | residual activity [12]: 100% | residual activity [13]: 84% | residual activity [14]: 89% | residual activity [15]: 96% | residual activity [16]: 93% | residual activity [17]: 60% | residual activity [18]: 89% | residual activity [19]: 77% | residual activity [20]: 88% | residual activity [21]: 91% | residual activity [22]: 90% | residual activity [23]: 100% | residual activity [24]: 100% | residual activity [25]: 84% | residual activity [26]: 100% | residual activity [27]: 100% | residual activity [28]: 100% | residual activity [29]: 100% | residual activity [30]: 98% | residual activity [31]: 100% | residual activity [32]: 64% | residual activity [33]: 74% | residual activity [34]: 100% | residual activity [35]: 100% | residual activity [36]: 68% | residual activity [37]: 100% | inhibition [38]: 0.267% | inhibition [39]: -5.1%

CC(=O)N1CCC(c2ccc(C(=O)NC(=N)N)cc2C(F)(F)F)CC1 [BI 9627]
Ki [1]: 10 µM | IC50 [2]: > 16 µM (not active) | residual activity [3]: 100% | residual activity [4]: 100% | residual activity [5]: 100% | residual activity [6]: 95% | residual activity [7]: 100% | residual activity [8]: 100% | residual activity [9]: 100% | residual activity [10]: 86% | residual activity [11]: 100% | residual activity [12]: 100% | residual activity [13]: 100% | residual activity [14]: 100% | residual activity [15]: 100% | residual activity [16]: 92% | residual activity [17]: 100% | residual activity [18]: 100% | residual activity [19]: 96% | residual activity [20]: 85% | residual activity [21]: 81% | residual activity [22]: 100% | residual activity [23]: 100% | residual activity [24]: 100% | residual activity [25]: 73% | residual activity [26]: 100% | residual activity [27]: 100% | residual activity [28]: 100% | residual activity [29]: 100% | residual activity [30]: 100% | residual activity [31]: 100% | residual activity [32]: 76% | residual activity [33]: 94% | residual activity [34]: 100% | residual activity [35]: 100% | residual activity [36]: 100% | residual activity [37]: 100% | inhibition [38]: 1.25% | inhibition [39]: 6.05%

— ChEMBL document CHEMBL4507279, “Data for DCP probe BI-9627” (2021)
